From US4923861A, “6-(2-(2-(Substituted amino)-3-quinolinyl) ethenyl and ethyl) tetrahydro-4-hydroxypyran-2-one inhibitors of cholesterol biosynthesis” (Warner-Lambert Company, priority 1989, dated 1990)
Structures can show the parent of a compound that is named as a salt.

What was measured:
[1] = system: cholesterol synthesis (plasma [14C]cholesterol); test: AICS (Acute Inhibition of Cholesterol Synthesis) screen; assay type: in vivo, male Sprague-Dawley rats; settings: cholestyramine-fed male rats, single oral gavage dose (dose not given), [1-14C]acetate i.p. one hour after dosing, blood after 50 minutes
Procedure: Additionally, the ability of compounds of the present invention to inhibit the biosynthesis of cholesterol was also measured by a method (designated AICS (Acute Inhibition of Cholesterol Synthesis) screen) which utilizes the procedure described by A. W. Alberts, et al, Proceedings of the National Academy of Sciences, Volume 77, pages 3957-3961 (1980).
In this method male Sprague-Dawley rats (200 g body weight) previously fed 5% cholestyramine for three days were randomly divided into groups (N=5/group) and given a single dose of vehicle (controls) or compound by an oral gavage at the indicated doses. One hour after drug dosing, all rats were injected intraperitoneally with sodium[1-^14 C]acetate (18.75 μCi/rat in 0.2 ml saline). After 50 minutes, blood samples were taken, plasma obtained by centrifugation, and plasma [^14 C]cholesterol measured after saponification and extraction.

[2] = system: sterol synthesis (rat liver homogenate); test: CSI (Cholesterol Synthesis Inhibition) screen; assay type: biochemical; settings: 14C-acetate incorporation into nonsaponifiable lipid, one-hour period
Procedure: The ability of compounds of the present invention to inhibit the biosynthesis of cholesterol was measured by a method (designated CSI (Cholesterol Synthesis Inhibition) screen) which utilizes the procedure described by R. E. Dugan et al, Archives of Biochemistry and Biophysics, Volume 152, pages 21-27 (1972). In this method, the level of HMG-CoA enzyme activity in standard laboratory rats is increased by feeding the rats a chow diet containing 5% cholestyramine for four days, after which the rats are sacrificed.
The rat livers are homogenized, and the incorporation of ^14 C-acetate into nonsaponifiable lipid by the rat liver homogenate is measured. The micromolar concentration of compound required for 50% inhibition of sterol synthesis over a one-hour period is measured, and expressed as an IC50 value.

| Compound | AICS % Inhibition [1] [%] | IC50 [2] [nM] |
| --- | --- | --- |
| CN(C)c1nc2ccccc2c(-c2ccc(F)cc2)c1/C=C/[C@@H](O)C[C@@H](O)CC(=O)O (relative stereo) [[R*,S*-(E)]-7-[2-dimethylamino)-4-(4-fluorophenyl)-3-quinolinyl]-3,5-dihydroxy-6-heptenoic acid, monosodium salt] | 49 | 47 |
| CN(C)c1nc2ccccc2c(-c2ccc(F)cc2)c1/C=C/[C@@H]1C[C@@H](O)CC(=O)O1 (relative stereo) [1 (lactone), [4α,6β(E)]-6-[2-[2-(Dimethylamino)-4-(4-fluorophenyl)-3-quinolinyl]ethenyl]tetrahydro-4-hydroxy-2H-pyran-2-one] | 52 |  |
